Results on one compound are retold here after patent US6586425B2, “Cytoskeletal active agents for glaucoma therapy” (Wisconsin Alumni Research Foundation, priority 1996, dated 2003).

This series concerns cornea. The experiment in a line: Corneal thickness by ultrasonic pachymetry. Type of series: in vivo, cynomolgus monkeys (Macaca fascicularis). The method, then: Corneal thickness was measured using a DGH-1000 ultrasonic pachymeter (DGH Technology). All eyes were examined by biomicroscopy prior to baseline measurements. Monkeys were placed supine in head holders. The central cornea was measured once and the peripheral cornea was measured four times midway between the center and the limbus on the vertical and horizontal axes. For each point in each eye, two baseline thickness measurements were averaged, and 4.0 μg LAT-B or 25% DMSO was administered to opposite eyes in the LAT-B protocol, or 25% DMSO or Bárány's administered to opposite eyes in the DMSO control protocol. The eyelids were held open manually during and for 5 min. after drug or vehicle administration. Corneal thickness was measured every 30-min. for 6 hr and again at 24 hr.

Molecules are shown by their SMILES. Values joined by “and” are separate entries in the source; they are usually repeats but may differ in a detail not shown here. Equal entries are not always repeated.

Turning to `C/C1=C/C(=O)O[C@@H]2C[C@@H](CC[C@H](C)/C=C\CC1)O[C@@](O)([C@@H]1CSC(=O)N1)C2` [LAT-B], for the setting “4.0 μg LAT-B topical, 3.5 hr, n=8”, the “central corneal thickness increase vs contralateral control eyes (maximum)” value is ~47 μm and 47±17 μm. The “central and peripheral corneal thickness” value (4.0 μg LAT-B topical, 24 hr) is reported as “returned to baseline”. Further, under “LAT-B, hour 3.5 (maximal change)”, the “central cornea thicker compared to normal monkey cornea” value is roughly 10%.
